Measured values reported in patent US6955891B2 (priority 2002, dated 2005).

Legend:
[1] = biological target: Bacillus anthracis lethal factor (Bacillus anthracis, UniProt P15917)
Lethal factor = Lethal factor (Bacillus anthracis, UniProt P15917); details: cited from earlier work
Sequence of Lethal factor (P15917 34-809 limits assumed): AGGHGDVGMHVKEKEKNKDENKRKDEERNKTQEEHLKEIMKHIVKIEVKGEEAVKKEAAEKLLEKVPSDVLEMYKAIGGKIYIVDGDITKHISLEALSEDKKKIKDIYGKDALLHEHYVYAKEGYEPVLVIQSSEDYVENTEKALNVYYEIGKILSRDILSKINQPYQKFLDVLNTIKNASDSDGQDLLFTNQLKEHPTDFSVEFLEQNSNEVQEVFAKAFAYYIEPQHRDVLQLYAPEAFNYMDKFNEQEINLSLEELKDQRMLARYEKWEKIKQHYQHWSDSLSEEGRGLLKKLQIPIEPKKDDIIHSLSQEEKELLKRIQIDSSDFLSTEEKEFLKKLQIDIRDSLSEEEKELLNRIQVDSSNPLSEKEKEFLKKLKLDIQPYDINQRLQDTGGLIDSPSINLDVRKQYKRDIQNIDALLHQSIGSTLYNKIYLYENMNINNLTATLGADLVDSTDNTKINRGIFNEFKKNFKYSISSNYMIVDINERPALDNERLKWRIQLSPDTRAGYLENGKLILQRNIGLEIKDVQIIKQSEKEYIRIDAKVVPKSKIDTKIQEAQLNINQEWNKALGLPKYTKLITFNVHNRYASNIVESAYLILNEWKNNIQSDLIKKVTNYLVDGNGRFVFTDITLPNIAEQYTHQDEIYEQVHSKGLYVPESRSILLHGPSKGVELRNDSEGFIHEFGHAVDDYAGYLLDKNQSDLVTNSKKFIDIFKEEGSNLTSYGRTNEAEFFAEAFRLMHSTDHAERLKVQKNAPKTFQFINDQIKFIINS

Sequence of Bacillus anthracis lethal factor (P15917 34-809 limits assumed): as above

Row | Compound | signal/background (S/B) at 100% cleavage [1] | effect on in vitro cleavage of synthetic peptides by lethal factor (Lethal factor)
1 | (Cou)NleKKKKVLP IQLNAATDK(Q-35)GG-NH2 [(Cou)Consensus(K(QSY-35)GG)-NH2] | largest S/B | 
2 | c1cnc2c(c1)ccc1cccnc12 [1,10-phenanthroline] |  | inhibited
